Among the data in PubChem BioAssay (NCI) are TGI and GI50 values, retold here.

Some test systems named below: T-47D breast; SNB-19 CNS; NCI-H522 lung; COLO 205 colon; MDA-MB-435; K-562 leukemia; HOP-62 NSCLC; CAKI-1 renal.
What all share (experiment): inhibition of tumour cell growth, NCI panel, 48 h

“And” between values parts separate entries of the source, which are not always exact repeats. Identical values can stand only once.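 In this assay, cells in 96-well plates receive the compound at five concentrations for 48 hours. Endpoints are linearly interpolated between the surrounding concentrations. At the GI50, growth is halved. At the TGI there is no net growth.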

Take `C/C=C/C(C/C=C(\C)CO[Si](C)(C)C(C)(C)C)O[Si](C)(C)C(C)(C)C` (stereo not given): the TGI with T-47D breast, in the test with SNB-19 CNS, in the test with NCI-H522 lung, in the test with COLO 205 colon, in the test with MDA-MB-435 and in the test with K-562 leukemia was greater than 100 µM each time. The TGI with HOP-62 NSCLC and in the test with CAKI-1 renal was greater than 100 µM in each case.

For `CNC(=S)N/N=C/CSC/C=N/NC(=S)NC`, the GI50 in the test on T-47D breast was 0.667 µM; in the test on SNB-19 CNS it was greater than 100 µM; in the test with NCI-H522 lung, greater than 100 µM; in the test with COLO 205 colon it was greater than 100 µM; in the test on MDA-MB-435, greater than 100 µM; in the test on K-562 leukemia, 3.08 µM. Also, the GI50 in the test on HOP-62 NSCLC and in the test with CAKI-1 renal was greater than 100 µM each time. Further, the TGI in the test with T-47D breast, in the test with SNB-19 CNS, with NCI-H522 lung, in the test with COLO 205 colon, in the test with MDA-MB-435 and in the test with K-562 leukemia was greater than 100 µM throughout. For the same compound, the TGI in the test on HOP-62 NSCLC and in the test with CAKI-1 renal was greater than 100 µM each time.

Regarding `COc1ncc(-c2ccc3nc(N)n(-c4ccccc4C(F)(F)F)c(=O)c3c2)cc1S(=O)(=O)Nc1ccc(F)cc1F`, the GI50 is 0.425 µM with T-47D breast; 7.87 µM with SNB-19 CNS; 3.04 µM in the test on NCI-H522 lung; 0.511 µM with COLO 205 colon; 1.11 µM in the test with MDA-MB-435; 5.73 µM in the test on K-562 leukemia. For the same compound, the figures for the GI50 with HOP-62 NSCLC and in the test with CAKI-1 renal were 0.526 µM and 0.122 µM, respectively. Further, the TGI in the test on T-47D breast was greater than 100 µM; in the test with SNB-19 CNS, 45.8 µM; with NCI-H522 lung, 24.5 µM; with COLO 205 colon, 1.82 µM; in the test on MDA-MB-435, 4.28 µM; with K-562 leukemia it was greater than 100 µM. Also, the TGI in the test with HOP-62 NSCLC and in the test with CAKI-1 renal was greater than 100 µM each time.

Consider `CC1(C)CCC(c2ccc(Cl)cc2)=C(CN2CCN(c3ccc(C(=O)NS(=O)(=O)c4ccc(N[C@H](CCN5CCOCC5)CSc5ccccc5)c(S(=O)(=O)C(F)(F)F)c4)cc3)CC2)C1`, for which the GI50 with T-47D breast is 2.05 µM; in the test on SNB-19 CNS it was 2.68 µM; in the test with NCI-H522 lung, 1.89 µM; in the test on COLO 205 colon it was 1.24 µM; in the test on MDA-MB-435 it was 1.64 µM; in the test on K-562 leukemia it was 2.45 µM. For the same compound, the figures for the GI50 with HOP-62 NSCLC and with CAKI-1 renal were 1.73 µM and 1.72 µM, respectively. Also, the TGI amounted to 5.25 µM with T-47D breast; 9.14 µM in the test with SNB-19 CNS; 5.03 µM in the test with NCI-H522 lung; 2.68 µM with COLO 205 colon; 3.17 µM with MDA-MB-435; 8.02 µM in the test with K-562 leukemia. Besides, the TGI worked out at 3.26 µM with HOP-62 NSCLC and 4.09 µM with CAKI-1 renal.

`CCn1nc(C#Cc2c(C)ccc3c(Nc4ccc(Cl)cc4)nccc23)c2c(N)ncnc21`: the GI50 with T-47D breast was 5.48 µM; in the test with SNB-19 CNS, 4.93 µM; in the test on NCI-H522 lung, 2.39 µM; with COLO 205 colon it was 2.36 µM; with MDA-MB-435, 1.08 µM; with K-562 leukemia, 2.18 µM. The GI50 in the test on HOP-62 NSCLC is 4.01 µM; with CAKI-1 renal, 4.78 µM. Also, the TGI with T-47D breast is greater than 100 µM; with SNB-19 CNS, greater than 100 µM; in the test with NCI-H522 lung it was 86.9 µM; in the test on COLO 205 colon it was greater than 100 µM; in the test on MDA-MB-435, 4.57 µM; in the test on K-562 leukemia, greater than 100 µM. Moreover, the values for the TGI in the test with HOP-62 NSCLC and in the test with CAKI-1 renal were 78 µM and greater than 100 µM, respectively.

In the case of `Nc1nc(N)c2nc(CNc3ccc(C(=O)NC(CCC(=O)O)C(=O)O)cc3)cnc2n1` (stereo not given), the GI50 was 0.316 µM and 1.37 µM with T-47D breast; 0.0634 µM and 0.0656 µM with SNB-19 CNS; 0.0446 µM and 0.0815 µM in the test with NCI-H522 lung; less than 0.01 µM with MDA-MB-435; less than 0.01 µM with K-562 leukemia; 0.0408 µM and < 0.01 µM in the test with HOP-62 NSCLC. Also, in the test on CAKI-1 renal, the GI50 is less than 0.01 µM. Besides, the TGI in the test on T-47D breast, with SNB-19 CNS, with NCI-H522 lung, in the test on COLO 205 colon, in the test on MDA-MB-435 and in the test with K-562 leukemia was greater than 100 µM throughout. For the same compound, the TGI in the test with HOP-62 NSCLC and with CAKI-1 renal was greater than 100 µM in each case.

Take `CCCN1CCCC(c2ccc(Nc3nc(Nc4cc(F)ccc4C(N)=O)c4cc[nH]c4n3)c(OC)c2)C1` (stereo not given): the GI50 was 3.55 µM in the test on T-47D breast; 3.19 µM with SNB-19 CNS; 2.85 µM in the test on NCI-H522 lung; 0.015 µM with COLO 205 colon; 1.04 µM with MDA-MB-435; 0.825 µM with K-562 leukemia. Also, the figures for the GI50 with HOP-62 NSCLC and with CAKI-1 renal were 2.62 µM and 3.17 µM, respectively. Moreover, the TGI with T-47D breast amounted to 7.62 µM; in the test on SNB-19 CNS, 6.45 µM; in the test on NCI-H522 lung it was 6.01 µM; in the test on COLO 205 colon, 1.23 µM; in the test on MDA-MB-435, 5.39 µM; in the test on K-562 leukemia, 5.59 µM. Moreover, the TGI is 5.58 µM with HOP-62 NSCLC and 8.63 µM in the test on CAKI-1 renal.

Take `CC(=O)Nc1ccc(S(=O)(=O)N2C(=O)CCC2C(=O)Nc2ccccc2)cc1` (stereo not given): the GI50 with T-47D breast was 0.283 µM; in the test with SNB-19 CNS, 1.74 µM; in the test with NCI-H522 lung, 0.491 µM; in the test with COLO 205 colon, 0.872 µM; with MDA-MB-435, 0.582 µM; in the test with K-562 leukemia, 0.258 µM. For the same compound, the results for the GI50 in the test on HOP-62 NSCLC and with CAKI-1 renal were 0.879 µM and 0.46 µM, respectively. Moreover, the TGI in the test on T-47D breast amounted to 14.6 µM; with SNB-19 CNS, 19.2 µM; in the test with NCI-H522 lung, 6.27 µM; in the test with COLO 205 colon it was 4.38 µM; in the test with MDA-MB-435 it was 17.3 µM; with K-562 leukemia it was 10.2 µM. Besides, the values for the TGI with HOP-62 NSCLC and in the test on CAKI-1 renal were 13.4 µM and 17.5 µM, respectively.

`CN(C)c1ccc(-c2cc(-c3cccc(NS(C)(=O)=O)c3)nc(N)c2C#N)cc1`: the GI50 in the test on T-47D breast is 0.951 µM; in the test with SNB-19 CNS, 0.0526 µM; with NCI-H522 lung, less than 0.013 µM; in the test on COLO 205 colon, 0.025 µM; in the test on MDA-MB-435, 0.0122 µM; in the test with K-562 leukemia it was 0.0372 µM. Also, the GI50 with HOP-62 NSCLC is 0.045 µM; in the test on CAKI-1 renal, 0.0348 µM. Moreover, the TGI was 35.9 µM in the test on T-47D breast; greater than 48.9 µM in the test with SNB-19 CNS; 1.21 µM in the test with NCI-H522 lung; 0.0729 µM with COLO 205 colon; 0.035 µM with MDA-MB-435; 48.5 µM in the test on K-562 leukemia. Moreover, the values for the TGI with HOP-62 NSCLC and in the test on CAKI-1 renal were 29.6 µM and 15.1 µM, respectively.
